Values joined by “and” are separate entries in the source; they are usually repeats but may differ in a detail not shown here. Identical values can stand only once. Toxic doses and inconclusive results are not listed. Cut-off read from the data, not from the text of the source: active = T/C of 150% or more; inactive = T/C below 125%.
Test system: L1210 leukemia ip in BDF1 mice, survival T/C
Assay: NCI In Vivo Anticancer Drug Screen. Data for tumor model L1210 Leukemia (intraperitoneal) in B6D2F1 (BDF1) mice
Conditions: endpoint: mean survival time, higher = longer survival
How it was run: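 Antitumor effect is assessed in tumor-bearing animals. Survival in the compound arm is compared with a vehicle-dosed control arm and expressed as their quotient.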

[1] = dose: 100.0 mg/kg/injection, schedule: Q01DX001 (ip), vehicle: saline
[2] = dose: 100.0 mg/kg/injection, schedule: Q01DX009 (ip), vehicle: saline with Tween-80
[3] = dose: 100.0 mg/kg/injection, schedule: Q04DX003 (ip), vehicle: saline with Tween-80
[4] = dose: 200.0 mg/kg/injection, schedule: Q01DX001 (ip), vehicle: saline
[5] = dose: 200.0 mg/kg/injection, schedule: Q01DX009 (ip), vehicle: saline with Tween-80
[6] = dose: 200.0 mg/kg/injection, schedule: Q04DX003 (ip), vehicle: saline with Tween-80
[7] = dose: 400.0 mg/kg/injection, schedule: Q04DX003 (ip), vehicle: saline with Tween-80
[8] = dose: 100.0 mg/kg/injection, schedule: Q04DX002 (ip), vehicle: saline with Tween-80
[9] = dose: 200.0 mg/kg/injection, schedule: Q04DX002 (ip), vehicle: saline with Tween-80
[10] = dose: 6.25 mg/kg/injection, schedule: Q01DX009 (ip), vehicle: saline with Tween-80
[11] = dose: 100.0 mg/kg/injection, schedule: Q04DX003 (ip), vehicle: Klucel (hydroxypropylcellulose) (HPC)
[12] = dose: 200.0 mg/kg/injection, schedule: Q04DX003 (ip), vehicle: Klucel (hydroxypropylcellulose) (HPC)
[13] = dose: 400.0 mg/kg/injection, schedule: Q04DX003 (ip), vehicle: Klucel (hydroxypropylcellulose) (HPC)
[14] = dose: 100.0 mg/kg/injection, schedule: Q04DX002 (ip), vehicle: Klucel (hydroxypropylcellulose) (HPC)
[15] = dose: 50.0 mg/kg/injection, schedule: Q01DX009 (ip), vehicle: saline with Tween-80
[16] = dose: 100.0 mg/kg/injection, schedule: Q04DX003 (ip), vehicle: saline
[17] = dose: 200.0 mg/kg/injection, schedule: Q04DX003 (ip), vehicle: saline

Measured: T/C

NC(N)=NN=C1CCC(C2CCCCC2)CC1 (stereo not drawn)
inactive: dose: 15.0 mg/kg/injection, schedule: Q01DX Z (ip), vehicle: methylcellulose (MC) 95 % of control | dose: 30.0 mg/kg/injection, schedule: Q01DX Z (ip), vehicle: methylcellulose (MC) 97 % of control | dose: 30.0 mg/kg/injection, schedule: Q01DX Z (oral), vehicle: methylcellulose (MC) 92 % of control | dose: 60.0 mg/kg/injection, schedule: Q01DX Z (ip), vehicle: methylcellulose (MC) 92 % of control | dose: 60.0 mg/kg/injection, schedule: Q01DX Z (oral), vehicle: methylcellulose (MC) 92 % of control | dose: 120.0 mg/kg/injection, schedule: Q01DX Z (ip), vehicle: methylcellulose (MC) 92 % of control | dose: 120.0 mg/kg/injection, schedule: Q01DX Z (oral), vehicle: methylcellulose (MC) 93 % of control

OC1CSC1
inactive: dose: 50.0 mg/kg/injection, schedule: Q01DX001 (ip), vehicle: saline 89 % of control | [1] 96 % of control | [2] 96 % of control | [3] 98 % of control | [4] 100 % of control | [5] 98 % of control | [6] 98 % of control | dose: 400.0 mg/kg/injection, schedule: Q01DX009 (ip), vehicle: saline with Tween-80 96 % of control | [7] 102 % of control

CCCCCC(CN(C)C)C(=O)/C=C/c1ccc(Cl)cc1 (stereo not drawn)
inactive: dose: 12.5 mg/kg/injection, schedule: Q01DX009 (sc), vehicle: other 100 % of control | dose: 25.0 mg/kg/injection, schedule: Q01DX009 (sc), vehicle: other 100 % of control | dose: 50.0 mg/kg/injection, schedule: Q01DX009 (sc), vehicle: other 93 % of control | dose: 50.0 mg/kg/injection, schedule: Q04DX003 (sc), vehicle: steriod suspending solution 95 % of control | dose: 75.0 mg/kg/injection, schedule: Q01DX009 (sc), vehicle: other 98 % of control | dose: 100.0 mg/kg/injection, schedule: Q01DX001 (sc), vehicle: steriod suspending solution 91 % of control | dose: 115.0 mg/kg/injection, schedule: Q01DX009 (sc), vehicle: other 100 % of control | dose: 200.0 mg/kg/injection, schedule: Q01DX001 (sc), vehicle: steriod suspending solution 116 % of control

COC(=O)C[CH2][Pb]([c]1ccccc1)([c]1ccccc1)[c]1ccccc1
inactive: [8] 102 % of control | [9] 113 % of control

S=c1nc2[nH]c3ccccc3c2n[nH]1
inactive: [3] 94 % of control | [6] 89 % of control

CC[P+]1(c2ccccc2)CCCc2ccc3ccccc3c21 (stereo not drawn)
inactive: [10] 117 % of control

S=C=NCc1cccc(CN=C=S)c1
inactive: [10] 103 % of control

Cc1cc(C)c2ccc(Cl)nc2n1
inactive: dose: 25.0 mg/kg/injection, schedule: Q01DX009 (ip), vehicle: Klucel (hydroxypropylcellulose) (HPC) 97 % of control | dose: 50.0 mg/kg/injection, schedule: Q01DX009 (ip), vehicle: Klucel (hydroxypropylcellulose) (HPC) 99 % of control

COc1ccc(-c2c(-c3ccccc3)c(=O)oc3ccc4ccccc4c23)cc1
inactive: [11] 97 % of control | [12] 100 % of control | [13] 97 % of control

O=C(O)c1cccc([N+](=O)[O-])c1
inactive: dose: 50.0 mg/kg/injection, schedule: Q04DX002 (ip), vehicle: Klucel (hydroxypropylcellulose) (HPC) 88 % of control | [14] 94 % of control

CCCCNC(=O)NC(=O)CS(=O)(=O)c1ccc(C)cc1
inactive: [3] 95 % of control | [6] 95 % of control | [7] 93 % of control

COc1cc(Cc2nccc3ccccc23)cc([N+](=O)[O-])c1OC
inactive: dose: 50.0 mg/kg/injection, schedule: Q04DX002 (ip), vehicle: saline with Tween-80 97 % of control | [8] 93 % of control | [9] 90 % of control | dose: 400.0 mg/kg/injection, schedule: Q04DX002 (ip), vehicle: saline with Tween-80 87 % of control

NC(=Nc1ccccc1)c1ccc(C(N)=Nc2ccccc2)cc1
inactive: dose: 15.0 mg/kg/injection, schedule: Q01DX Z (ip), vehicle: carboxymethylcellulose (CMC) 104 % of control | dose: 30.0 mg/kg/injection, schedule: Q01DX Z (ip), vehicle: carboxymethylcellulose (CMC) 98 % of control | dose: 60.0 mg/kg/injection, schedule: Q01DX Z (ip), vehicle: carboxymethylcellulose (CMC) 86 % of control

CCCc1cccc[n+]1CC(=O)c1ccccc1
inactive: dose: 6.25 mg/kg/injection, schedule: Q01DX009 (ip), vehicle: saline sonified 115 % of control | dose: 12.5 mg/kg/injection, schedule: Q01DX009 (ip), vehicle: saline sonified 107 % of control | dose: 25.0 mg/kg/injection, schedule: Q01DX009 (ip), vehicle: saline sonified 91 % of control

CN(C)CCCCN(C)CCCN(C)C
inactive: [1] 114 % of control | [4] 102 % of control | dose: 400.0 mg/kg/injection, schedule: Q01DX001 (ip), vehicle: saline 98 % of control

CC1OC(C2COC(C)(C)O2)C2OC(C)(C)OC12 (stereo not drawn)
inactive: dose: 100.0 mg/kg/injection, schedule: Q01DX001 (ip), vehicle: saline with Tween-80 101 % of control | dose: 200.0 mg/kg/injection, schedule: Q01DX001 (ip), vehicle: saline with Tween-80 101 % of control | dose: 400.0 mg/kg/injection, schedule: Q01DX001 (ip), vehicle: saline with Tween-80 101 % of control

O=Cc1cc([N+](=O)[O-])cc(CCl)c1O
inactive: dose: 100.0 mg/kg/injection, schedule: Q01DX009 (ip), vehicle: Klucel (hydroxypropylcellulose) (HPC) 90 % of control

OC(COc1ccccc1)CC(O)(C(F)(F)F)C(F)(F)F (stereo not drawn)
inactive: dose: 75.0 mg/kg/injection, schedule: Q01DX009 (ip), vehicle: saline with Tween-80 92 % of control | dose: 150.0 mg/kg/injection, schedule: Q01DX009 (ip), vehicle: saline with Tween-80 89 % of control | dose: 300.0 mg/kg/injection, schedule: Q01DX009 (ip), vehicle: saline with Tween-80 103 % of control

COC(=O)c1ccc(OC(=O)Nc2ccccc2F)cc1
inactive: dose: 25.0 mg/kg/injection, schedule: Q01DX009 (ip), vehicle: saline with Tween-80 106 % of control | [15] 119 % of control | [2] 95 % of control and 108 % of control

NC(N)=Nc1ccccc1
inactive: [15] 107 % of control | [2] 101 % of control | [16] 101 % of control | [5] 104 % of control | [17] 115 % of control

Cc1ccc2c(Cl)ccc(Cl)c2n1
inactive: [14] 90 % of control | dose: 100.0 mg/kg/injection, schedule: Q04DX002 (ip), vehicle: carboxymethylcellulose (CMC) 98 % of control and 90 % of control | dose: 100.0 mg/kg/injection, schedule: Q04DX003 (ip), vehicle: carboxymethylcellulose (CMC) 95 % of control | dose: 200.0 mg/kg/injection, schedule: Q04DX002 (ip), vehicle: Klucel (hydroxypropylcellulose) (HPC) 90 % of control | dose: 200.0 mg/kg/injection, schedule: Q04DX002 (ip), vehicle: carboxymethylcellulose (CMC) 94 % of control and 91 % of control | dose: 200.0 mg/kg/injection, schedule: Q04DX003 (ip), vehicle: carboxymethylcellulose (CMC) 104 % of control | dose: 400.0 mg/kg/injection, schedule: Q04DX002 (ip), vehicle: Klucel (hydroxypropylcellulose) (HPC) 105 % of control | dose: 400.0 mg/kg/injection, schedule: Q04DX002 (ip), vehicle: carboxymethylcellulose (CMC) 92 % of control

Cc1ccc(NS(=O)(=O)c2ccc([N+](=O)[O-])cc2)cc1
inactive: [3] 103 % of control | [6] 89 % of control | [7] 89 % of control

CCCCCCCCC[As](=O)(O)O
inactive: dose: 1.5 mg/kg/injection, schedule: Q01DX001 (ip), vehicle: carboxymethylcellulose (CMC) 98 % of control | dose: 3.0 mg/kg/injection, schedule: Q01DX001 (ip), vehicle: carboxymethylcellulose (CMC) 104 % of control | dose: 60.0 mg/kg/injection, schedule: Q01DX001 (ip), vehicle: carboxymethylcellulose (CMC) 109 % of control

COc1cccc(/C=C(/SC)S(C)=O)c1OC (stereo not drawn)
inactive: [16] 105 % of control | [17] 106 % of control | dose: 400.0 mg/kg/injection, schedule: Q04DX003 (ip), vehicle: saline 102 % of control

CC(=O)Nc1nnc(/C=C/c2ccc([N+](=O)[O-])o2)s1
inactive: [11] 87 % of control | [12] 89 % of control | [13] 100 % of control

— PubChem BioAssay AID248 (DTP/NCI, 2004)
